Two compounds from paper PMC9575645 (Signal Transduction and Targeted Therapy, 2022) can be followed below.

Series [1] concerns A549. Put plainly: Cytotoxicity, MTT assay, A549. Type of series: cell-based, human. On the procedure: (§1) The cytotoxic effects of the chemicals and their solvents were tested by the MTT assay,[44] and its procedure is described in Supplementary Information.
(§2) The cytotoxic effects of the chemicals and their solvents used were tested by the MTT assay as described previously.^10 In brief, the chemicals were dissolved in DMSO to a stock concentration of 10 mM, and then freshly serially diluted in serum-free medium before being added to cell culture monolayers. The absorbance was measured using an enzyme-linked immunosorbent assay (ELISA) reader at an optical density (OD) of 570 nm. The percent cell viability was calculated using the following formula, [(ODsample˗ODblank)/(ODcontrol˗ODblank)] × 100%. According to the cell cytotoxicity data, dose-response curves were generated for the calculation of CC50 using GraphPad Prism software version 8.4.2.
For orientation: Tetrazolium assays rely on reduction of a dye to a coloured formazan, in cell work by metabolically active cells.

For series [2], the system named is MDCK. Put plainly: Cytotoxicity, MTT assay, MDCK. Type of series: cell-based, canine. Here is the method: as §1, §2
Series [3] concerns HRT18G. Put plainly: Cytotoxicity, MTT assay, HRT18G. Type of series: cell-based, human. Here is the method:
as §1, §2

In series [4] the test system is MA104. Put plainly: Cytotoxicity, MTT assay, MA104. In kind it is cell-based, African green monkey. Here is the method: as §1, §2
Series [5] deals with LLC-PK. Put plainly: Cytotoxicity, MTT assay, LLC-PK. Type of series: cell-based, porcine. Here is the method:
as §1, §2

Series [6] has as its system palmitic and oleic acids. Put plainly: LC-MS quantification of palmitic and oleic acids in IAV-infected A549 cells. In kind it is cell-based, human. The note with it: 20 μM. Here is the method: The difference in saturated and unsaturated FFAs between the untreated and the treated cells after infection with IAV or SARS-CoV-2 was determined by GC-FID and LC-MS as previously reported,[11] and detailed procedures are described in Supplementary Information.
The amount of palmitic and oleic acids in the untreated and treated cells after infection with IAV was determined by LC-MS. In brief, A549 cells infected with IAV PR8 strain at an MOI of 0.1 were vehicle-treated, or treated with 20 μM atglistatin or CAY10499 at 12 hpi, or treated with 20 μM atglistatin or CAY10499 and then supplemented individually with 100 μM of PA or OA at 12 hpi, and incubated further for 12 h. Afterward, cells were collected for FFA extraction. 700 μL Chloroform : Methanol (2:1) was added to the freeze cell pellets and vortexed for 1 min. The mixture was sonicated for 5 min and re-vortexed for 1 min. The mixture was centrifuged at 13,000 rpm for 8 min, and the lower organic layer was collected and transferred into a micro-tube. Using vacuum concentrator, the extracts were dried. Finally, the extracts were re-dissolved by methanol and centrifuged at 13,000 rpm for 5 min. The supernatants were transferred into LC-MS vials. […] The standard compounds as well as extracted samples were analyzed in selective ion monitoring (SIM) mode using the ESI source by monitoring the H^- adducts ions. […]

Series [7] has as its system proinflammatory cytokines. Put plainly: Proinflammatory cytokines in IAV-infected A549 cells (RT-qPCR, ELISA). Type of series: cell-based, human. As to conditions: 20 μM. On the technique in general: Quantitative PCR measures a nucleic acid by following its amplification.
Series [8] concerns SARS-CoV-2 S protein. Type of series: cell-based.
In series [9] the test system is lipid droplets (LDs). Put plainly: BODIPY lipid droplet immunofluorescence in SARS-CoV-2-infected Vero E6 cells. Type of series: cell-based, African green monkey. The note with it: SARS-CoV-2-infected cells, MOI = 0.1 FFU; 20 µM. On the procedure:
To characterize the dynamics of LD formation, apoptotic and necroptotic cells, and virus infectivity, an IFA was performed with the […], MDCK, Caco-2, Vero E6, MA104, MARC-145, LLC-PK, and HRT-18G cells, infected with or without each virus, and treated with vehicles or chemicals at the different time points (Table S3), or transfected with siRNA or scrambled siRNA as described above.^ 16^,27^,28 Briefly, cells were prepared in 8-well chamber slides infected with IAV, SARS-CoV-2, BCoV, PEDV, RVA, PRRSV, or PSaV at an MOI of 1 (IAV), or MOI of 0.1 (SARS-CoV-2, BCoV, PEDV, RVA, PRRSV, or PSaV) and treated with or without chemicals. […] Subsequently, cells were washed thrice with PBS (pH 7.4) and mounted with SlowFade Gold antifade reagent containing 1 × DAPI solution (Molecular Probes) for nucleus staining, observed with a LSM 800 confocal microscope, and analysed using Zen Blue Software 2.6 (Carl Zeiss; Jena, Germany).
The number and size of intracellular LDs were measured as described previously.^28 Briefly, four images were taken of each sample and converted into a pixel unit, and the data were processed and quantified using Adobe Photoshop CS6. […] The results were expressed as relative values, where the average number and size of pixels of positive color in virus-infected groups were normalized to those of the mock-treated, mock-infected control.

In series [10] the test system is Species A Rotavirus (NCDV). As to conditions: for IC50: Species A Rotavirus (NCDV), MA104 cells.
For series [11], the system named is Porcine respiratory reproductive syndrome virus (LMY). As to conditions: for IC50: PRRSV (LMY), MARC-145 cells.
Series [12] deals with Porcine sapovirus (Cowden). As to conditions: for IC50: Porcine sapovirus (Cowden), LLC-PK cells.

What is called CC50 is the concentration giving 50% cytotoxicity. A low value points to harm at low concentration. One may read the IC50 as the point on the concentration scale where inhibition reaches its midpoint. A lower IC50 goes with greater potency. Consider `CN(C)C(=O)Nc1cccc(-c2ccc(N(C)C)cc2)c1` [Atglistatin], for which the CC50 in series [1] came to 206 ± 3 µM; in series [2] it was 269 ± 3.2 µM; in series [3] it was 182 ± 2.6 µM; in [4], 214.5 ± 2 µM; in series [5], 224 ± 2.3 µM. For the same compound, the “levels of PA and OA (LC-MS)” value in [6] is on record as “significantly reduced”. In addition, the “proinflammatory cytokines IFN-α, IFN-β, TNF-α, IL-6, MCP-1” value in [7] is “significantly reduced”. In addition, in series [8], the “palmitoylation of the SARS-CoV-2 spike (S) protein” value was “significantly inhibited”. In series [9], the “intracellular LDs (BODIPY)” value is reported as “Retention of LDs”. Further, the “SI (CC50/IC50)” value in series [10] was 32; in series [11], 84; in [12], 72. For the same compound, the figures for the half-inhibitory concentration (IC50) in series [10], in series [11] and in series [12] were 6.7 ± 0.49 µM, 2.53 ± 0.18 µM and 3.11 ± 0.39 µM, respectively.

`COc1nn(-c2ccc(NC(=O)OCc3ccccc3)c(C)c2)c(=O)o1` [CAY10499]: the CC50 in series [1] is 106 ± 8.9 µM; in series [2], 110 ± 4.1 µM; in series [3], 104 ± 9.1 µM; in [4] it was 107 ± 5.6 µM; in [5], 109 ± 8.1 µM. Moreover, the “levels of PA and OA (LC-MS)” value in [6] is “significantly reduced”. In addition, the “proinflammatory cytokines IFN-α, IFN-β, TNF-α, IL-6, MCP-1” value in series [7] is on record as “significantly reduced”. Besides, the “palmitoylation of the SARS-CoV-2 spike (S) protein” value in series [8] is “significantly inhibited”. Besides, the “intracellular LDs (BODIPY)” value in series [9] is recorded as “Retention of LDs”. Moreover, the “SI (CC50/IC50)” value in series [10] came to 5; in [11], 24; in [12], 9. In addition, the IC50 turned out to be 20.9 ± 5.06 µM in series [10], 4.21 ± 0.55 µM in series [11] and 11.8 ± 2.6 µM in series [12].
